We go through two compounds from patent US20220177484A1, “MACROCYCLES WITH ANTIOXIDANT AND NEUROPROTECTIVE ACTIVITIES” (INSTITUTO BIOMAR, S.A, priority 2019, published 2022).

Test [1] relates to C57BL6/J male mice. The experiment in a line: Open field test in 3-nitropropionic acid chemical model of Huntington's disease. Format: in vivo. The settings on record: mice injected with GKK1032C and CL0670, once-daily 150 mg/kg (FIG. 16). As for the experimental part: GKK1032C and CL0670 injections were performed at day 1, day 2 and day 3. 3-nitropropionic acid injections were performed at days 1, 1.5, 2, 2.5, 3 and 3.5. The shown data points were obtained 4 hours after the injections. p-value<0.05 vs. control (student's test).
(§1) A chemical model of Huntington's disease was conducted to evaluate the capacity of compound I and CL0670 in protecting neurons. This is achieved by intraperitoneal injection of 3-nitropropionic acid which induces neuronal oxidative stress by inhibiting the succinate dehydrogenase enzyme.
(§2) 8-weeks old C57BL6/J male mice were divided into 4 groups.
(§3) Mice in group I (4 mice) were injected with GKK1032C and CL0670 (once-daily dose of 150 mg/kg for 3 days).
(§4) Mice in group II (5 mice) were injected with GKK1032C and CL0670 (once-daily dose of 150 mg/kg for 3 days) and with 3-nitropropionic acid (twice daily dose of 50 mg/kg for 3 days). In the case of group II, 3-nitropropionic acid was injected two hours and twelve hours after injection with GKK1032C and CL0670.
(§5) Mice in group III (5 mice) were injected with 3-nitropropionic acid (twice daily dose of 50 mg/kg for 3 days).
(§6) Mice in group IV (6 mice) were injected with vehicle only.

In test [2] the test system is C57BL6/J male mice. Description: Stroke size after Middle Cerebral Artery occlusion (tetrazolium chloride). Format: in vivo. The settings on record: for protection of the stroke volume caused by the Middle Cerebral Artery occlusion: GKK1032C and CL0670 10 mg/kg intravenously (FIG. 19); for percentage averaged stroke volume: mice treated with GKK1032C and CL0670 10 mg/kg intravenously after MCA occlusion, untreated ischemia ˜48%. The source says:
FIG. 19 is the graphical representation of the volume of the cerebral stroke of mice submitted to Middle Cerebral Artery occlusion effect (empty bar) and of mice submitted to Middle Cerebral Artery occlusion and administration of Compound I and CL0670 (solid bar). *: p-value<0.05 vs. ischemia (student's test).
Middle Cerebral Artery occlusion involves temporarily or permanently restricting MCA blood flow to the cortex and striatum. The cerebral ischemic model of stroke is commonly used to assess ischemic injury in the brain. Occlusion of the middle cerebral artery (MCA) leads to a reduction of cerebral blood flow in both the striatum and the cortex. It is a highly reproducible model that results in brain damages similar to those occurring in human stroke.
Compounds GKK1032C and CL0670 were administered intravenously at a dose of 10 mg/kg. 11-week old C57BL6/J male mice were divided into 3 groups of 7 mice each: mice submitted to Middle Cerebral Artery occlusion (ischemia), mice submitted to Middle Cerebral Artery occlusion and administration of GKK1032C and CL0670.
All mice were firstly trained in the rotarod for 3 consecutive days. After this period, the mice were put to sleep with sevoflurane and submitted to surgery. Occlusion was performed by maintain the surgical filament occluding the middle cerebral artery for 30 minutes. Once removed, GKK1032C and CL0670 were injected at the jugular vein. 24 hours after reanimation, the animals were submitted to the rotarod test.
To compare the neuroprotective effect caused by GKK1032C and CL0670 to the motor coordination of mice and the cerebral damage caused by the chirurgical procedure, the animals were sacrificed, and the stroke size measured by visual inspection after treatment with tetrazolium chloride. […] The data confirms that GKK1032C and CL0670 are excellent neuroprotector agents against stroke.

Test [3] relates to SH-SY5Y human neuroblastoma cells expressing EGFP-alphasynuclein-A53T. Description: Mutated α-synuclein aggregation in transfected SH-SY5Y cells. Format: cell-based. To be noted: 5 μM, 24 h. As for the experimental part:
Mutated α-synuclein protein aggregation are indicated by white arrows, GFP α-synuclein protein (green) and β-tubulin (red). The images were acquired using the Operetta CLS automated confocal microscope, using the 40× water immersion objective.
SH-SY5Y human neuroblastoma cells were maintained in Dulbecco's modified Eagle's medium (DMEM) supplemented with 10% fetal bovine serum (FBS), 2 mM L-glutamine and 100 U/mL penicillin-0.1 mg/mL streptomycin at 37° C. and 5% CO2.
To study the effect of compounds on mutated huntingtin and synuclein that accumulates in cells, SH-SY5Y were transfected with a constitutively active mutated-huntingtin expression vector pEGFP-Q74 (encoding EGFP protein fused to a fragment of huntingtin corresponding to the exon 1 with 74 CAG repeats; c.54GCA[74]; Addgene; #40262) and EGFP-alphasynuclein-A53T (Addgene; #40823).
For transfection assays, cells were seeded (30×10^3 cells/cm^2) on 96-multiwell plates (coated with poliornitine-fibronectine). Cells were transfected with 0.3 μg pEGFP-Q74 plasmid using LTX with Plus Reagent according to the manufacturer's instructions (Thermo Fisher). After 24-h, the medium was changed with a new one, and cells were treated with increasing amounts of GKK1032C and CL0670 (0.1 μM, 1 μM and 5 μM) or DMSO (control cells) for 24 h at 37° C. […]

The test system of test [4] is C57BL6/J male mice. Description: Rotarod test in 3-nitropropionic acid chemical model of Huntington's disease. Format: in vivo. The settings on record: group II injected with GKK1032C and CL0670, once-daily 150 mg/kg for 3 days, plus 3-nitropropionic acid 50 mg/kg twice daily; after two administrations (FIG. 15). As for the experimental part:
Compound I and CL0670 injections were performed at day 1 and day 2. 3-nitropropionic acid injections were performed at days 1, 1.5, 2, 2.5, 3 and 3.5. The shown data points were obtained 2 hours after the injections. p-value<0.05 vs. control (student's test).
as §1, §2, §3, §4, §5, §6
The mice were submitted to the rotarod test once-daily, 2 hours after the injections. […]
A general note: In the rotarod test animals must keep their balance on a rotating rod.

For `C=CC1(C)C=C(C)C2C3C(Oc4ccc(cc4)CC4C(=O)NC(O)C4C(=O)C31)C1C(C)CC(C)CC21C` (stereo not drawn) [CL0670], in test [1], the “number of line crossings (open field), 3-nitropropionic acid model” value is “increased” and the “time spent in central square of the arena (open field), 3-nitropropionic acid model” value was “increased”. In test [2], the “protection of the stroke volume caused by the Middle Cerebral Artery occlusion” value is reported as “roughly 18%” and the “percentage averaged stroke volume” value turned out to be 39.5%. The “mutated synuclein and number of aggregates” value in test [3] was “significantly decreased”. Moreover, the “motor discoordination (rotarod) induced by 3-nitropropionic acid” value in test [4] is “prevent partially”.

Take `C=CC1(C)C=C(C)C2C3C(Oc4ccc(cc4)CC4(O)NC(=O)C5(OC45)C(=O)C31)C1C(C)CC(C)CC21C` (stereo not drawn) [Compound I]: in test [1], the “number of line crossings (open field), 3-nitropropionic acid model” value was “increased” and the “time spent in central square of the arena (open field), 3-nitropropionic acid model” value was “increased”. In test [2], the “protection of the stroke volume caused by the Middle Cerebral Artery occlusion” value is “roughly 18%” and the “percentage averaged stroke volume” value is given as 39.5%. The “mutated synuclein and number of aggregates” value in test [3] is given as “significantly decreased”. For the same compound, in test [4], the “motor discoordination (rotarod) induced by 3-nitropropionic acid” value is “prevent partially”.
